In patent US4963570A, “1-(acetylaminophenyl)-2-aminopropanone derivatives and pharmaceutical compositions thereof” (Laboratoire L. Lafon, priority 1983, dated 1990):
“Also recorded” adds a separate entry of the source. Structures can show the parent of a compound that is named as a salt.

Tests used:
rats [1] = assay: overall behavior and reactivities in rats; type: in vivo, rat; conditions: i.p., dose not stated
Experimental: (§1) Groups of three animals are observed before and then 0.25 hour, 0.50 hour, 1 hour, 2 hours, 3 hours and 24 hours after the administration of CRL 41 224.

rats [2] = assay: action on stereotypies in rats (α-methyltyrosine, haloperidol, reserpine); conditions: i.p.
rats [3] = assay: interaction with apomorphine in rats; type: in vivo, rat; conditions: i.p., dose not stated
Experimental: CRL 41 224 is administered to groups of 6 rats 0.5 hour before the subcutaneous injection of 0.5 mg/kg of apomorphine.

mice [4] = assay: motility reduced by habituation to the enclosure; type: in vivo, mouse; conditions: i.p., dose not stated
Experimental: After they have stayed in the actimeters for 18 hours, the mice (6 per dose, 12 control animals) receive CRL 41 224. They are immediately returned to their respective enclosures and, half an hour later, their motility is recorded for 30 minutes.

mice [5] = assay: overall behavior and reactivities in mice; type: in vivo, mouse; conditions: mice, i.p.; dose not stated
Experimental: as §1

CNS = assay: overall neuropsychopharmacological (CNS) profile; type: in vivo, mouse; rat; conditions: i.p., mice and rats, dose not stated
Experimental: The neuropsychopharmacological study of CRL 41 219 was carried out as indicated above for CRL 41 224.
The neuropsychopharmacological study of CRL 41 220 was carried out in accordance with the procedures given above for CRL 41 224.

mice [6] = assay: motility reduced by hypoxic aggression; type: in vivo, mouse; conditions: i.p., dose not stated
Experimental: Half an hour after they have received CRL 41 224, the mice (10 per dose, 20 control animals) are subjected to acute hypobaric anoxia [pressure reduction of 600 mm Hg (i.e. about 8×10^4 Pa) in 90 seconds; release of vacuum in 45 seconds] and are then placed in an actimeter, where their motility is recorded for 10 minutes.

[7] = test system: peripheral α-adrenergic stimulation; assay: signs of peripheral adrenergic stimulation; type: in vivo, mouse; rat; conditions: i.p.; dose not stated
Experimental: as §1

mice [8] = assay: interaction with apomorphine in mice; type: in vivo, mouse; conditions: i.p.; dose not stated
Experimental: Groups of 6 mice receive CRL 41 224 0.5 hour before the subcutaneous injection of 1 or 16 mg/kg of apomorphine.

mice [9] = assay: action on the behavioral despair; type: in vivo, mouse; conditions: i.p., dose not stated
Description: Half an hour after they have received CRL 41 224, groups of 6 mice are placed in a beaker filled with water to a height of 6 cm. The total period of immobility between the 2nd and 6th minutes following immersion is noted.

mice [10] = assay: four plate test, traction and electric shock; type: in vivo, mouse; conditions: i.p., dose not stated
Experimental: The test is performed on groups of 10 mice 30 minutes after the administration of CRL 41 224.

rats [11] = assay: interaction with amphetamine; type: in vivo, rat; conditions: rats, i.p.; dose not stated
Experimental: Amphetamine (2 mg/kg) is injected intraperitoneally into groups of 6 rats 30 minutes after the administration of CRL 41 224.

mice [12] = assay: interaction with reserpine; type: in vivo, mouse; conditions: i.p.; dose not stated
Experimental: Four hours after the intraperitoneal injection of 2.5 mg/kg of reserpine, groups of 6 mice receive CRL 41 224.

mice [13] = assay: action on the spontaneous motility (actimeter); type: in vivo, mouse; conditions: mice, i.p.; dose not stated
Experimental: 0.5 hour after they have received CRL 41 224, the mice (6 per dose, 12 control animals) are placed in an actimeter, where their motility is recorded for 30 minutes.

mice [14] = assay: interaction with barbital; type: in vivo, mouse; conditions: i.p.; dose not stated
Experimental: Half an hour after the administration of CRL 41 224, groups of 10 mice receive an intraperitoneal injection of barbital (220 mg/kg).

mice [15] = assay: interaction with oxotremorine; type: in vivo, mouse; conditions: i.p.; dose not stated
Experimental: CRL 41 224 is administered to groups of 6 mice 0.5 hour before the intraperitoneal injection of 0.5 mg/kg of oxotremorine.

male mice = assay: acute toxicity, intraperitoneal (lethal doses); type: in vivo, mouse; conditions: i.p.
Experimental: By intraperitoneal administration to male mice, the LD-30 (lethal dose for 30% of the animals tested) is of the order of 128 mg/kg and the LD-50 is of the order of about 200 mg/kg.

LEWIS' carcinoma = LEWIS' carcinoma in mice; type: in vivo, mouse; conditions: mice
Experimental: a. animals: consanguineous female mice (C57 BL6), b. infecting cells: 10^5 cells injected subcutaneously into the back of the animals, c. monitoring of the tumor growth by measurement of the tumor twice a week, d. evaluation of the pulmonary metastases after fixation of the lungs of the dead animals in BOUIN's fixative.
Using the same procedures, the association of CRL 41 220 with 150 mg/kg of cyclophosphamide gives the results collated in Table II below.

dogs = assay: cardiovascular action in anesthetized dogs; type: in vivo, dog; conditions: control dogs, isoprenaline alone
Experimental: Four dogs (average weight: 13.8 kg), anesthetized with nembutal, receive CRL 41 220 by intraduodenal administration at successive doses of 0.1 mg/kg, 0.5 mg/kg, 1 mg/kg, 2.5 mg/kg, 5 mg/kg and 10 mg/kg. The blood pressure, the heart beat, the flow rate through the femoral artery, the flow rate through the vertebral artery and the rectal and/or skin temperature are measured and the coloration of the skin and the bile (collected by catheterization of the bile duct after ligature of the cystic duct) is observed.

Compound	stereotype movements in rats (rats [1])	stereotypies induced by apomorphine (rats [3])	motor activity after habituation to the enclosure (mice [4])	excitation in mice (mice [5])	motor recovery after hypoxic aggression (mice [6])	exophthalmos [7]	mydriasis [7]	peripheral adrenergic stimulation, overall [7]	hypothermia induced by apomorphine (mice [8])	period of immobility or "despair" (mice [9])	stereotypies induced by amphetamine (rats [11])	hypothermia induced by reserpine (mice [12])	ptosis induced by reserpine (mice [12])	spontaneous motility / motor activity (mice [13])	sleep induced by barbital (mice [14])	hypothermia induced by oxotremorine (mice [15])	stereotype movements in mice (mice [5])	overall action on the CNS (CNS)	LD-0 (maximum non-lethal dose) (male mice)	LD-30 (male mice)	further results
CC(=O)Nc1ccc(C(=O)C(C)NC(C)C)cc1Cl (stereo not drawn) [CRL 41 192, 1-(4-acetylamino-3-chlorophenyl)-2-isopropylaminopropanone hydrochloride]	stereotype movements in rats	potentiation of the stereotypies induced by apomorphine	a resumption in the motor activity of mice accustomed to their enclosure	excitation with hyperreactivity in mice	an improvement in the motor recovery in mice after acute hypoxia	absent	mydriasis	effects which may reflect peripheral adrenergic stimulation	antagonism of the hypothermia induced by apomorphine	a reduction in the immobility	potentiation of the stereotypies induced by apomorphine or amphetamine	antagonism of the hypothermia induced by apomorphine, oxotremorine or reserpine	antagonism of the ptosis induced by reserpine	an increase in the spontaneous motility in mice	antagonism of the sleep induced by barbital	antagonism of the hypothermia induced by apomorphine, oxotremorine	–	–	–	–	suppression of induced stereotype movements by prior injection of alpha-methyltyrosine (rats [2]): not suppressed; overall action on the CNS (CNS; hydrochloride): stimulant effects; also recorded: antidepressant effects; salivation [7]: absent; convulsant effects of electric shock (mice [10]): anticonvulsant effects; trembling caused by oxotremorine (mice [15]): antagonism of the trembling caused by oxotremorine
CC(=O)Nc1ccc(C(=O)C(C)N(C)C)cc1 (stereo not drawn) [CRL 41 232]	presence of stereotype movements in mice and rats	potentiation of the stereotypies induced by apomorphine	distinct resumption in the motor activity of mice accustomed to their enclosure	excitation in mice	improvement in the motor recovery	exophthalmos	mydriasis	peripheral α-adrenergic stimulation	antagonism of the hypothermia induced by apomorphine	reduction in the period of immobility	potentiation of the stereotypies induced by apomorphine and amphetamine	antagonism of the hypothermia induced by apomorphine, reserpine	antagonism of the ptosis induced by reserpine	increase in the motor activity	–	antagonism of the hypothermia induced by apomorphine, reserpine and oxotremorine	presence of stereotype movements in mice	behaves overall as a stimulant and antidepressant for the CNS	greater than 128 mg/kg	about 250 mg/kg	–
CC(=O)Nc1ccc(C(=O)C(C)N2CCOCC2)cc1 (stereo not drawn) [CRL 41 236]	–	potentiation of the stereotypies induced by apomorphine	increase in the spontaneous motility and in the motor activity after habituation to the enclosure	excitation with hyperreactivity	improvement in the motor recovery after hypoxic aggression	–	mydriasis	peripheral α-adrenergic stimulation	antagonism of the hypothermia induced by apomorphine	reduction in the immobility	potentiation of the stereotypies induced by apomorphine and amphetamine	antagonism of the hypothermia induced by apomorphine, reserpine	antagonism of the ptosis induced by reserpine	increase in the spontaneous motility	antagonism of the sleep induced by barbital	antagonism of the hypothermia induced by apomorphine, reserpine and oxotremorine	without the presence of stereotype movements	behaves as an antidepressant having stimulant and arousing properties	greater than 256 mg/kg	about 500 mg/kg	lethal effects of electric shock (mice [10]): seems to aggravate the lethal effects of electric shock; number of punished passes in the 4 plate test (mice [10]; mice): moderate increase in the number of punished passes
O=P1(N(CCCl)CCCl)NCCCO1 (stereo not drawn) [cyclophosphamide, reference compound]	–	–	–	–	–	–	–	–	–	–	–	–	–	–	–	–	–	–	–	–	development of tumors (LEWIS' carcinoma; 100 mg/kg): slightly slows down the development of tumors; number of pulmonary metastases (LEWIS' carcinoma; 100 mg/kg): reduces the number of pulmonary metastases; survival of the animals treated (LEWIS' carcinoma; 100 mg/kg): without however improving the survival of the animals treated; effect on process initiated by the administration of infecting cells (LEWIS' carcinoma; 150 mg/kg): distinctly opposes the process initiated by the administration of infecting cells; survival (LEWIS' carcinoma; 150 mg/kg): 2 out of 6
CC(C)NCC(O)c1ccc(O)c(O)c1 (stereo not drawn) [isoprenaline, reference compound]	–	–	–	–	–	–	–	–	–	–	–	–	–	–	–	–	–	–	–	–	heart beat with 10 μg/kg of isoprenaline, control animals (dogs): 280 beats/minute
